Measurements taken from US20260130906A1, “THERAPY COMPRISING ANTI-CD19 ANTIBODY AND SUMO-ACTIVATING ENZYME INHIBITOR” (TAKEDA PHARMACEUTICAL COMPANY LIMITED, priority 2021, published 2026).

What was measured:
[1] = tested on: OCI-Ly10 human xenograft tumor model; assay: Study 2: OCI-Ly10 human xenograft tumor model; format: in vivo, CB17 SCID mice; conditions: for GRI % / Tumor volume on Day 25 (±SEM): OCI-Ly10; for GRI %: Day 25, vs vehicle; for Tumor volume on Day 25 (±SEM): in mm³ (unit assumed); for tumor growth inhibition as a single agent (in words): human OCI-Ly10 DLBCL mouse model
Description: The differences in the tumor growth trends over time between pairs of treatment groups were assessed by fitting each animal's data to a simple exponential growth model and comparing the mean growth rates of the two groups, as described in more detail below. The difference in the growth rates was summarized by the GRI, which is the reduction in growth rate experienced by the treatment group relative to that of the reference group, expressed as a fraction of the vehicle growth rate.
A GRI greater than 100% is interpreted as tumor regression when the vehicle group is the same as the reference group. A negative value of the GRI means that the tumors in the treatment group grew faster than the tumors in the reference group. Statistical significance was determined using an unpaired t-test.
Low tumor volumes can cause problems with the data analysis, so all measurements below 25 cubic mm (including 0 values) were excluded from the analysis. After this exclusion step, the tumor volume was assumed to follow an exponential growth model. More specifically, for a given animal and treatment group,
Combination analysis was performed to determine if there was a benefit from combining drug treatments. This analysis was also based on the estimated tumor growth rates. The measure of synergy was defined as
Here, μAB, μA, μB, and μControl are the mean growth rates for the combination, drug A, drug B, and control groups, respectively. As before, μV is the mean tumor growth rate for the vehicle group, which in most cases is the same as the control group. The standard error of the synergy score was calculated as the square root of the sum of squared standard errors across the four groups. The degrees of freedom were estimated using the Welch-Satterthwaite equation. A hypothesis test was performed to determine if the synergy score differed from 0. P-values were calculated by dividing the synergy score by its standard error and tested against a t-distribution (two-tailed) with the above-calculated degrees of freedom. A P value of less than 0.05 is statistically significant.
The combination results can be interpreted as follows. Statistically significant negative synergy scores indicate a synergistic combination (“Syn.”). Statistically significant positive synergy scores indicate a sub-additive combination (“Sub-add.”) when the combination performs better (i.e. has a lower growth rate) than the best performing single agent. Statistically significant positive synergy scores indicate an antagonistic combination (“Antag.”) when the combination performs worse than the best performing single agent. Scores that are not statistically significant should be considered additive (“Add.”).
OCI-Ly10 is a human DLBCL cell line. An OCI-Ly10 human xenograft tumor model was generated by subcutaneous inoculation in the flank of 8 week old female CB17 SCID mice (Charles River Laboratories, Wilmington, MA) with 4.0×10^6 OCI-Ly10 cells (cell suspension in 0.1 ml IMDM with Matrigel 1:1). When the mean tumor volume reached approximately 175 mm^3, the animals were randomized into one vehicle control group and 7 treatment groups (n=7/group) as described in Table 2a. Mice were then dosed with 20% HPβCD or Compound I-263a and/or tafasitamab over a 3 week period. In the combination treatment groups, I-263a was administered first, followed immediately by the administration of tafasitamab. Tumor growth and body weight were measured twice per week during the treatment and post-treatment periods, and mice were humanely euthanized once they had reached their humane endpoint. Tumors were measured using Vernier calipers and volumes were calculated using standard equation: V=W^2×L/2, where V=volume, W=width, and L=length for the tumor.
A 0.75 mg/mL stock solution of I-263a was formulated weekly in 20% HPβCD and administered intravenously (IV) based on an average body weight using a 0.2 mL dosing volume. Final dose of I-263a received was 7.5 mg/kg. […]

[2] = tested on: NK cells co-cultured with DAUDI cells; assay: Degranulation of NK cells (CD107a); format: cell-based, human; conditions: PBMCs pre-treated 1 μM TAK-981 24 h and/or 0.1 or 10 nM tafasitamab; E:T 10:1; 3 h; vs DMSO control or mono treatments; FIG. 2
Description: Whole Blood was collected from healthy volunteers. PBMCs were isolated via density-gradient centrifugation using Biocoll (Biochrome) or Pancoll (PAN Biotech) separating solution and SepMate tubes (STEMCELL Technologies).
Freshly isolated PBMCs were first pre-treated with 1 μM TAK-981 or DMSO-containing buffer for 24 hours. PBMCs with or without TAK-981 pre-treatment were co-cultured with DAUDI cells at an E:T ratio of 10:1 and incubated with 0.1 or 10 nM tafasitamab or no antibody at 37° C. and 5% CO2. After 1 hour, 2 μM Monensin was added to each well and CD107a expression was analyzed by flow cytometry after a total incubation time of 3 hours.

| Molecule | GRI % ([1]; I-263a 7.5 mg/kg IV BIW) [%] | Tumor volume on Day 25 (±SEM) ([1]; I-263a 7.5 mg/kg IV BIW 3 weeks) | tumor growth inhibition as a single agent (in words) [1] | percentage of CD107+ NK cells [2] | GRI % ([1]; tafasitamab 3 mg/kg IP BIW) [%] | GRI % ([1]; tafasitamab 10 mg/kg IP BIW) [%] | GRI % ([1]; tafasitamab 20 mg/kg IP BIW) [%] | Tumor volume on Day 25 (±SEM) ([1]; tafasitamab 3 mg/kg IP BIW 3 weeks) | Tumor volume on Day 25 (±SEM) ([1]; tafasitamab 10 mg/kg IP BIW 3 weeks) | Tumor volume on Day 25 (±SEM) ([1]; tafasitamab 20 mg/kg IP BIW 3 weeks) |
| --- | --- | --- | --- | --- | --- | --- | --- | --- | --- | --- |
| Cc1sc(C(=O)c2cncnc2N[C@@H]2C[C@H](COS(N)(=O)=O)[C@@H](O)C2)cc1[C@@H]1NCCc2ccc(Cl)cc21 [Compound I-263a, [(1R,2S,4R)-4-{[5-({4-[(1R)-7-chloro-1,2,3,4-tetrahydroisoquinolin-1-yl]-5-methyl-2-thienyl}carbonyl)pyrimidin-4-yl]amino}-2-hydroxycyclopentyl]methyl sulfamate] | 55 | 615.9 ± 106.4 | inhibits tumor growth | elevated percentage of CD107+ NK cells |  |  |  |  |  |  |
| Tafasitamab: humanized monoclonal antibody that targets the antigen CD19, engineered in the IgG Fc-region to enhance ADCC; sequences in Table 1 |  |  | inhibits tumor growth | elevated percentage of CD107+ NK cells | 37 | 43 | 36 | 701 ± 94.2 | 745.1 ± 154.2 | 809.2 ± 129.1 |
